Experimental data taken from article PMC6889490, “General structural features that regulate integrin affinity revealed by atypical αVβ8” (Nature Communications, 2019).

Test system: αVβ8 headpiece
Test: Hydrogen-deuterium exchange MS, αVβ8 headpiece
Conditions: 2.20 µM αVβ8, 6.67 µM TGF-β1 ligand peptide; from KD
Description: Two microliters of αVβ6 and αVβ8 stock solutions (23 and 33 µM, respectively), either alone or mixed with 100 µM TGF-β1 ligand peptide, were diluted 15-fold (to 1.53 and 2.20 µM, αVβ6 and αVβ8, respectively, and 6.67 µM TGF-β1 ligand peptide) with labeling buffer (Supplementary Table 1) at 21 °C to initiate deuterium exchange. […] At time points from 10 s to 240 m, an aliquot was removed and an equal volume of quench buffer (Supplementary Table 1) was added to adjust the pH to 2.5. Each sample (46 pmol αVβ6 or 66 pmol αVβ8) was immediately subjected to liquid chromatography-mass spectrometry analysis as described in the next paragraphs and in our PRIDE submission (PXD014348). For binding experiments, protein and ligand were allowed to equilibrate for 20 min at 21 °C before deuterium labeling.
Deuterated and control samples were digested in solution with pepsin (10 mg/ml, Sigma P6887; Lot#SLBL1721V) for 5 min on ice, and then injected into an M-class Acquity UPLC with HDX technology (Waters)[32]. […]
Peptides were identified using PLGS 3.0.1 (Waters, 720001408EN) using six replicates of undeuterated αVβ6 and six replicates of undeuterated αVβ8. […] The relative amount of deuterium in each peptide was determined by subtracting the centroid mass of the undeuterated form of each peptide from the deuteratered form, at each time point, for each condition. […]

G^213RRGDLATIHG^223 [TGF-β1 ligand peptide]
predicted binding to integrin: 99.6%
